Measured values published in patent publication US6197752A, “Glycomimetics as selectin antagonists and pharmaceuticals having antiinflammatory activity prepared therefrom” (Glycorex AB, priority 1995, dated 2001).
Like-named read-outs stand apart in the source and are kept apart here.

What was measured:
[1] = WO 95/04526; WO 94/24145; cited from earlier work
5-lipoxygenase = settings: WO 95/04526; WO 94/24145; cited from earlier work
P-Selectin = target: T1, P-Selectin (Homo sapiens, UniProt P16109); settings: WO 95/04526, WO 94/24145, cited from earlier work
T1 sequence (P16109 42-830): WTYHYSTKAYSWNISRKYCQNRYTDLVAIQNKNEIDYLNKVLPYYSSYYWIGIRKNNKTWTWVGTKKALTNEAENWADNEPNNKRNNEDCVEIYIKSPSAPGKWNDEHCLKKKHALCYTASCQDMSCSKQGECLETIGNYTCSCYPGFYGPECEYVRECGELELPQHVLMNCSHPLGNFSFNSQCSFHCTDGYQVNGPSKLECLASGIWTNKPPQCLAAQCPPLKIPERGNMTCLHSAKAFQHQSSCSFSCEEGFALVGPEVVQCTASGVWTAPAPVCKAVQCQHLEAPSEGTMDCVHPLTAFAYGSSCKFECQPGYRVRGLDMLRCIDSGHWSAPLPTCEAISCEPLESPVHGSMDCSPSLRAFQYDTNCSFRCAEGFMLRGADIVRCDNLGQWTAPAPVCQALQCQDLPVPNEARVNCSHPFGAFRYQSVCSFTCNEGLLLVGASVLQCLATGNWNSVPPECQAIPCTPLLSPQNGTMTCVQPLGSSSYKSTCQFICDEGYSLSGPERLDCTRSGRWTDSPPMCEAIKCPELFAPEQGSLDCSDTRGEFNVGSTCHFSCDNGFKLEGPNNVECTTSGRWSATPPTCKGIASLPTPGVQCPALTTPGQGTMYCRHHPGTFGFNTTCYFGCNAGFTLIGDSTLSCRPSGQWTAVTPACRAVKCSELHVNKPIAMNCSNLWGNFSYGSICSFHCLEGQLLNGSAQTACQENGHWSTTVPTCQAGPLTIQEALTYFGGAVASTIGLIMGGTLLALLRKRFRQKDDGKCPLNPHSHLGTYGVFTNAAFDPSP

[2] = system: leukocyte adhesion on the endothelium; assay: LPS-induced leukocyte adhesion in vivo, intravital microscopy in the mesenterium of the rat; settings: SPRD (m)
Text: In inflammatory processes and other states which activate the cytokines, a critical part is played by the destruction of tissue by means of leukocytes which migrate in or which block the microcirculation. The first phase, which is critical for the subsequent course of the disease, is the activation of leukocytes within the blood stream, especially in the pre- and post-capillary area. […] All subsequent leukocyte effects, i.e. active migration through the vessel wall and subsequent oriented migration in the tissue, are secondary reactions (Harlan, J. M., Leukocyte-endothelial interaction, Blood 65, 513-525,1985). […]
The induced adhesion of leukocytes is quantified by an investigation technique involving intravital microscopy in the mesenterium of the rat (Atherton A. and Born G.V.R., Quantitative investigations of the adhesiveness of circulating polymorphonuclear leukocytes to blood vessel walls. J. Physiol. 222, 447-474,1972; Seiffge, D. Methoden zur Untersuchung der Rezeptor-vermittelten Interaktion zwischen Leukozyten und Endotheizellen im Entzundungsgeschehen [Methods of investigating receptor-mediated interaction between leukocytes and endothelial cells in the case of inflammation] in: Ersatz- und Erganzungsmethoden zu Tierversuchen in der biomedizinischen Forschung, Schoffl, H. et al., (eds.) Springer, 1995 (in press)). […]

selectins = settings: cited from earlier work
[3] = system: P-selectin-dependent lung injuries; settings: animal experiments; Mulligan et al. 1993; cited from earlier work
[4] = system: myocardial reperfusion injuries; settings: animal experiments; Buerke et al. 1994; cited from earlier work

C=C(CO[C@H]1CC[C@]2(C)[C@H]3C(=O)C=C4[C@@H]5C[C@@](C)(C(=O)O)CC[C@]5(C)CC[C@@]4(C)[C@]3(C)CC[C@H]2C1(C)C)C[C@@H]1O[C@@H](C)[C@@H](O)[C@@H](O)[C@@H]1O [Compound 4a]
antimetastatic action [1]: antimetastatic action | inhibition of 5-lipoxygenase (5-lipoxygenase): inhibition of 5-lipoxygenase | P-selectin inhibition (in words) (P-Selectin): P-selectin inhibition | IC50 (P-Selectin; read-out: IC50 for binding to P-selectin): 750 µM

C[C@@H]1O[C@@H](CCCOC(=O)N2CCC(C(=O)O)CC2)[C@@H](O)[C@H](O)[C@@H]1O [Compound 12c]
inhibition of leukocyte adhesion ([2]; 3 mg/kg, 1 day i.v.): 58% | inhibition of leukocyte adhesion ([2]; 20 mg/kg, 1 day p.o.): 29%

CC1OC(CCCCC2OC(CO)C(O)C(CCC(=O)O)C2O)C(O)C(O)C1O (stereo not shown) [Compound 3]
IC50 (selectins; Wong et al., J. Am. Chem. Soc. 1995): 10000 to 20000 µM

CC(=O)NC1C(O)CC(OC2C(O)C(CO)OC(OC3C(CO)OC(O)C(NC(C)=O)C3OC3OC(C)C(O)C(O)C3O)C2O)(C(=O)O)OC1C(O)C(O)CO (stereo not shown) [SLeX]
use in P-selectin-dependent lung injuries [3]: successfully used | use in myocardial reperfusion injuries [4]: successfully used

CC1OC(CC(=O)C2CCCC2C(=O)NC(Cc2ccccc2)C(=O)O)C(O)C(O)C1O (stereo not shown) [Compound 2]
IC50 (selectins; glycopeptide analogs (WO 95/04751), region of up to): ≤ 1000 µM
